# Test results: a melting point compilation (Tetko et al.; mined from patent text by program, amines drawn as free bases though some values may be those of a salt)
row,Structure (SMILES),melting point
1,CCCCCCCCCCC[C@@H](O)CC(=O)OC,42 to 43 °C
2,O=C1Nc2cc3c(cc2OC1CCCBr)CCCC3 (centres undefined),139 to 140 °C
3,CC(C)N1C(=O)CO[C@@H]2c3cc(F)ccc3OCC[C@H]21 (relative stereo),127 to 143 °C
4,O=c1c(OC(F)F)cn(-c2ccccc2F)nc1-c1ccnn1-c1ccccc1,109 to 114 °C
5,O=C1C2=C(CCCC2)C(=O)N1c1c(F)cc(Cl)c2nc(Cl)sc12,139 to 141 °C
6,Cn1nnnc1-c1cn(C)c2ccccc2c1=O,220 to 222 °C
7,"Nc1nc(N)c2ncn(C3COC(CO)O3)c2n1 (single isomer, unassigned; (-))",237 to 239 °C
8,COc1ccc(C(C)(C)C)cc1NC(=O)Nc1ccc(C)cc1N,165 to 166 °C
9,O=[N+]([O-])c1cc(Br)nc(Br)c1,122 to 123 °C
10,CCC(C1CCCC1)C(O)(c1ccc(O)cc1)c1ccc(OCCN(C)C)cc1 (centres undefined),112 to 120 °C
11,O=c1[nH]c2cc(Cl)cc(Cl)c2c(=O)n1Cc1cccc([N+](=O)[O-])c1,314 to 317 °C
12,CC(=O)CCOc1c(-c2ccc(S(C)(=O)=O)cc2)cnn(-c2ccc(F)cc2)c1=O,133 to 136 °C
13,O=C(O)c1ccc(Br)cc1-c1cc(Cl)cc(Cl)c1,182 to 186 °C
14,CC(C)Oc1cccc2oc(-c3ccccc3)cc(=O)c12,98 to 99 °C
15,CCc1nn2c(O)cc(O)nc2c1S(=O)(=O)c1ccccc1,> 230 °C
16,O=C1CC(c2cccc(-n3ccnc3)c2)=Nc2cc(CO)c(C#Cc3ccccc3)cc2N1,227 °C
17,COC(=O)N1CC[C@H](NC(C)=O)C[C@H]1Cc1ccc(Cl)cc1 (relative stereo),169 to 170 °C
18,COc1ccc(-c2nc3n(c2-c2ccncc2)CCS3=O)cc1 (centres undefined),165 to 170 °C
19,Nc1nc(N)n(CCCOc2cccc(CN3CCCCC3)c2)n1,100 °C
20,Cn1c(=O)c2cnc(O)n2c2ccccc21,> 300 °C
21,Cc1cccc(-c2[nH]c(C(C)C)nc2-c2cccc(-c3ccc(OC(F)(F)F)cc3)c2)n1,120 to 122 °C
22,COc1ccc(C(=O)[C@H]2CC=CC[C@H]2C(=O)O)cc1Br (relative stereo),201 to 204 °C
23,CC(=O)NC[C@H]1CN(c2ccc(N3C[C@H]4CN(C(=O)CO)C[C@H]4C3)c(F)c2)C(=O)O1,167 to 168 °C
24,CC1(C)Cc2ccc(F)cc2C=[N+]1[O-],88 to 90 °C
25,Cc1ccc(S(=O)(=O)O[C@H](C)C(=O)N2C(=O)N(C)C[C@H]2C(=O)OCc2ccccc2)cc1,153 to 155 °C
26,O=C(O)C(OCc1ccc(-c2ccc(Cl)cc2)cc1)c1ccccc1 (centres undefined),119 to 121 °C

row,Structure (SMILES),melting point
1,Nc1ccc2c(c1)S(=O)(=O)NCCO2,179 °C
2,CCOC(=O)C(=O)Nc1c([N+](=O)[O-])ccc2ncccc12,181 °C
3,CN1C(=O)Nc2ccccc2C12NC(=O)NC2=O (centres undefined),> 280 °C
4,O=C1c2cc(OCc3ccc4ccccc4n3)ccc2OCC1Oc1cccnc1 (centres undefined),174 to 175 °C
5,NC(=O)CNC(=O)c1cc(-c2cccc3cc(Cc4cc(F)cc(Cl)c4)sc23)ccc1F,129 to 130 °C
6,COc1c(Cl)cc(Br)cc1Cl,67 to 68 °C
7,O=C(O)c1cccc(Oc2ccnc(Cl)c2)n1,183 °C
8,O=C(CCC(=O)N1CCC(c2ccc(Cl)cc2)CC1)c1ccc2c(c1)CCN(CCn1cccc1)CC2,96 to 97 °C
9,CCCCN(CCCC)c1ccc(C=CC=Cc2ccc(C=CC3=C(C#N)C(=C(C#N)C#N)OC3(C)C)s2)c(OC)c1,185 to 187 °C
10,CC(=O)c1nnc(-c2ccc3occ(-c4cccc(OC(F)(F)F)c4)c3c2)o1,64 to 65 °C
11,OC/C=C/c1ccc(C(F)(F)F)cc1,53 to 55 °C
12,CC1(C(O)(Cc2ccccc2Cl)Cn2cncn2)CCCCC1 (centres undefined),105 °C
13,CSC(=S)N1C(CO)Cc2c([nH]c3ccccc23)C1C (centres undefined),153 to 156 °C
14,O=C(NCCc1ccccc1)[C@@H]1Cc2ccccc2N1,112 to 116 °C
15,COC(=S)C(C)Cc1ccc(OCc2nc3ccc(SC)cc3n2C)cc1 (centres undefined),97 to 100 °C
16,Nc1ccc(CCN2CCN(c3nsc4ccccc34)CC2)cc1,154 °C
17,O=C(OCc1ccccc1)c1cc(Cl)c(Cl)c(Cl)n1,125 to 126 °C
18,Nc1cccc(-c2ccc(C3CCN(Cc4ccc5c(c4)OCO5)CC3)cc2)n1,150 to 165 °C
19,CNC(=S)NCCOCc1c[nH]cn1,96 to 98 °C
20,COc1ccc(/C(=C/C=C/C(=O)O)C(C)C)cc1,132 to 133 °C
21,S=C1NCC2c3ccccc3Cc3ccccc3N12 (centres undefined),222 to 224 °C
22,CCCC(=CC(N)C(=O)O)CP(=O)(O)O (centres undefined),193 °C
23,COC(=O)C1(O)CN2CCC1CC2 (centres undefined),122 °C
24,Cc1nccn1-c1cnc2[nH]cc(C(=O)C(C)(C)C)c2n1,247 to 249 °C
25,Cc1cc(-n2cncn2)c2cccc(OCc3c(Cl)ccc(S(=O)(=O)N4CCC[C@H]4C(=O)NCCCN4CCCC4)c3Cl)c2n1,86 °C
26,Cc1ccc(-c2nc(COc3ccc(CCCn4ccnc4)cc3)co2)o1,109 to 110 °C

row,Structure (SMILES),melting point
1,CC(C)(C)N1CC2(CCN(Cc3ccccc3)CC2)OC1=O,110 to 112 °C
2,CN1C(=O)C(C)(C)N=C(c2ccccc2Cl)c2c1ccc(N)c2Cl,195 to 196 °C
3,Cc1cc(-c2cnn3c(O)ncnc23)ccc1S(C)=O (centres undefined),281 to 282 °C
4,O=C1c2ccccc2C(=O)c2c1cc(CO)c1c2CCC1,191 to 192 °C
5,CC(C)C1(C)NC(c2nc(-c3ccsc3)ccc2C(=O)O)=NC1=O (centres undefined),253 to 257 °C
6,NCc1ccc(-n2c(-c3cccnc3N)nc3ccc(-c4cn[nH]c4)nc32)cc1,264 to 269 °C
7,Cn1c(=O)c2c(N)nccc2n(C)c1=O,229 to 230 °C
8,CC(C)n1nc(-c2sc(NC(=O)C3CC3)nc2-c2ccccc2)ccc1=O,226 to 227 °C
9,O=C1c2ccccc2C(=O)N1CC(Cl)(CCl)c1ccccc1 (centres undefined),114 to 115 °C
10,O=C(O)CCCNC(=O)C(CS)Cc1ccccc1 (centres undefined),94.5 to 101 °C
11,CCCc1nc(C(=O)O)c(C(=O)O)[nH]1,261 to 263 °C
12,NC(=O)CC(c1cccc(F)c1)c1cccc(F)c1,103 to 105 °C
13,O=C1c2ccccc2CN1[C@@H]1c2cc([N+](=O)[O-])ccc2OC(CF)(CF)[C@H]1O (relative stereo),285 to 288 °C
14,O=C(NCc1ccc(Br)cc1)Nc1cccc2[nH]ccc12,198 °C
15,O=C(CN1CCC(NC(=O)c2ccccc2)CC1)c1ccccc1,168 °C
16,Cc1ccc(-c2nc(SCc3ccccn3)n[nH]2)c(C)c1,112 to 114 °C
17,CCOC(=O)CC12CC(c3ccccc31)c1ccccc12,81 to 84 °C
18,OCc1ccc(OCCCCl)cc1,65 °C
19,CCc1cccc2c3c([nH]c12)C(CC)(CC=N)OCC3 (centres undefined),101 to 103 °C
20,COc1ccc(-c2c(Cl)c(COc3ccccn3)nc3sc4c(c23)CCN(Cc2ccccc2)C4)cc1OC,165 to 167 °C
21,Cc1nn2c(-c3ccncc3)ccnc2c1C#N,220 to 221 °C
22,O=C(Nc1ccc2ccc(Oc3ccccc3)nc2n1)c1ccsc1,95 °C
23,Cc1nc(CN(C(=O)CCl)c2c(C)cccc2C)cs1,62 to 64 °C
24,O=[N+]([O-])c1ccc(CNc2cccc(S(=O)(=O)O)c2)cc1,> 275 °C
25,CN(C(=O)O)c1cccc(-c2ccnc3c(C(=O)c4cccs4)cnn23)c1,215 to 217 °C
26,CCOC(=O)CCC(=O)CSc1nc2cc(Cl)c(F)cc2c(O)c1C(=O)OCC,144 °C

row,Structure (SMILES),melting point
1,CCOC=Nc1c2oc3ccccc3c2nn1C,120 to 122 °C
2,O=C(Nc1ccc(Cl)cn1)c1cc(Cl)ccc1NCC1CCN(C(=O)N2CCOCC2)CC1,105 to 107 °C
3,CN(C)CCNC(=O)c1cc(-c2cccc(Cl)c2)c2cc(C(c3ccc(Cl)cc3)c3cncn3C)ccc2n1 (centres undefined),184 °C
4,CCNC(=S)Nc1cc(Cl)ccc1C,120 to 122 °C
5,CN(C)S(=O)(=O)c1cn(C)c2cc(Cl)ccc2c1=O,207 to 209 °C
6,Cc1cc2c(cc1F)NC(=O)C2,168 to 171 °C
7,O=C1C(Cc2ccncc2)c2ccccc2N1N1CCCCC1 (centres undefined),83 to 86 °C
8,CCCCC(Oc1c(Br)cc(-c2c3ccccc3c(Br)c3sc4ccccc4c23)cc1Br)C(=O)O (centres undefined),212 to 213 °C
9,COC(=O)NC1CCc2ccc(NC(=O)c3cccc(C)c3-c3ccc(C(F)(F)F)cc3)cc2CC1 (centres undefined),190 to 193 °C
10,CN(Cc1ccccc1)c1ncnc2c(N3CCS(=O)CC3)nc(N3CCNCC3)nc12,214 to 215 °C
11,CC1CC(C)(C)C(CNc2ccnc3cc(Cl)ccc23)C1N (centres undefined),> 250 °C
12,CN(C)Cc1nc(CO)nn1-c1ccc(Cl)cc1C(=O)c1ccccc1,198 to 200 °C
13,COc1ccc(-c2cccc(C(=O)NO)c2C)cc1OCCCCCc1ccccc1,125 to 126 °C
14,Cc1ccc(C(C#N)(Cc2c[nH]cn2)c2ccccc2)cc1 (centres undefined),188 to 193 °C
15,COC(=O)[C@H](Cc1ccc(NC(=O)c2c(Cl)cccc2Cl)cc1)NC(=O)C1(CCNC(C)=O)CCCC1,190 to 194 °C
16,COc1ccc(-c2cc3ncnc(Nc4ccc5[nH]ccc5c4)c3s2)cn1,243 to 249 °C
17,O=S1N=C(NCCCN(Cc2ccccc2)c2ccccn2)C(NCc2ccccn2)=N1 (centres undefined),139 to 140 °C
18,CCOC(=O)c1cc(Cc2ccccc2)c(O)c2ccccc12,79 to 80 °C
19,CCCc1nc2c(N)nc3cccnc3c2n1CC1(O)CCC1,226 to 227 °C
20,CS(=O)(=O)NCCNCc1ccccc1,71 to 73 °C
21,OC1C=CC2COC1O2 (centres undefined),65.6 to 66.4 °C
22,COc1ccc(OC)c(C(=S)N2CCOCC2)c1,127 °C
23,C=CCNc1nc(NC(=O)NCCCC)c2scc(C)c2n1,141 °C
24,Cc1c(OCc2ccc(F)cc2)cnn(C(C)(C)C)c1=O,65 to 66.5 °C
25,CN1C2=NCCN2C(=O)c2cccnc21,168 to 171 °C
26,CN(Cc1cccc2c1C(=O)N(C1CCC(=O)NC1=O)C2=O)C(=O)Nc1cccc(Cl)c1 (centres undefined),193 to 195 °C
